Activity calls are given as the source filed them.
What was measured:
[1] = molecular target: Paired box protein Pax-8 (Homo sapiens, UniProt Q06710); experiment: inhibitors of PAX8-driven TPO luciferase reporter, dose response, RMG-I cells, cherry-pick (AID 687027); type: functional, cell-based;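 further: luciferase reporter driven by Pax8 target thyroperoxidase promoter measured by SteadyGlo luminescence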
[2] = A2780 ovarian cancer cell cytotoxicity, dose response, cytotoxicity control, plate reader, dry powder samples (AID 743046); type: functional, cell-based
[3] = A Cell-Based Confirmatory Screen for Compounds that Inhibit VEEV, TC-83 (5).; type: functional
[4] = A375 melanoma cell viability loss, dose response, counter-screen for MITF inhibitor project, CellTiter-Glo luminescence, dry powder, set 4 (AID 624364); type: functional, cell-based; conditions: A-375;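 further: A375 melanoma cells are MITF independent so this is a counter screen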
[5] = A375 melanoma cell cytotoxicity, dose response, counter-screen for MITF inhibitor project, CellTiter-Glo luminescence, dry powder, set 2 (AID 624489); type: functional, cell-based; conditions: A-375;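 further: actives are compounds lowering A375 viability meaning general cytotoxicity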
[6] = molecular target: T1, Potassium channel subfamily K member 9 (Homo sapiens, UniProt Q9NPC2); experiment: KCNK9 (TASK3) current inhibition by patch clamp, SAR follow-up, selectivity assay for TASK1 (KCNK3) inhibitor project, cell-based, automated electrophysiology (AID 652210); type: functional
[7] = molecular target: T1, Potassium channel subfamily K member 9; experiment: TASK3 (KCNK9) channel inhibitors, thallium flux, SAR follow-up, selectivity assay for TASK1 inhibitor project, cell-based, FluxOR thallium flux, concentration-response (AID 652211); type: functional;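 further: potency is for inhibitors of the channel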
[8] = molecular target: Potassium channel subfamily K member 3 (Rattus norvegicus, UniProt O54912); experiment: SAR analysis for the identification of selective inhibitors of the two-pore domain potassium channel TASK1(KCNK3):Automated Electrophysiology.; type: functional
[9] = molecular target: Potassium channel subfamily K member 3 (Homo sapiens, UniProt O14649); experiment: TASK1 (KCNK3) potassium channel inhibitors, SAR follow-up, CHO cells, FluxOR thallium flux (AID 652212); type: functional
[10] = inhibitors of non-replicating M. tuberculosis, dose response, luciferase, dry powder (AID 651619); type: functional; conditions: Mycobacterium tuberculosis
[11] = cytotoxicity in HeLa cells, dose response, cytotoxicity control, cell-based, plate reader, dry powder (AID 651946); type: functional
[12] = inhibitors of non-replicating M. tuberculosis, dose response, luciferase, dry powder (AID 651620); type: functional; conditions: Mycobacterium tuberculosis
[13] = growth inhibition of replicating M. tuberculosis, dose response, counter-screen, dry powder, IC90 (AID 651617); type: functional; conditions: Mycobacterium tuberculosis
[14] = molecular target: NAD-dependent protein deacylase sirtuin-5, mitochondrial (Homo sapiens, UniProt Q9NXA8); experiment: SIRT5 deacylase inhibitors, dose response, biochemical, fluorescence imaging, cherry-pick, set 6 (AID 720597)
[15] = Late stage assay provider results from the probe development effort to identify inhibitors of the Plasmodium falciparum M18 Aspartyl Aminopeptidase (M18AAP): radiolabel-based cell-based dose response assay to identify compounds that inhibit P. falciparum growth in RBCs, Set 2..; type: functional
[16] = molecular target: RNA-editing ligase 1, mitochondrial (Trypanosoma brucei brucei, UniProt P86926); experiment: TbREL1 ligase inhibitors, dose response, biochemical, fluorescence, Trypanosoma brucei (AID 1117295); type: functional
RNA-editing ligase 1, mitochondrial, sequence (P86926 whole entry): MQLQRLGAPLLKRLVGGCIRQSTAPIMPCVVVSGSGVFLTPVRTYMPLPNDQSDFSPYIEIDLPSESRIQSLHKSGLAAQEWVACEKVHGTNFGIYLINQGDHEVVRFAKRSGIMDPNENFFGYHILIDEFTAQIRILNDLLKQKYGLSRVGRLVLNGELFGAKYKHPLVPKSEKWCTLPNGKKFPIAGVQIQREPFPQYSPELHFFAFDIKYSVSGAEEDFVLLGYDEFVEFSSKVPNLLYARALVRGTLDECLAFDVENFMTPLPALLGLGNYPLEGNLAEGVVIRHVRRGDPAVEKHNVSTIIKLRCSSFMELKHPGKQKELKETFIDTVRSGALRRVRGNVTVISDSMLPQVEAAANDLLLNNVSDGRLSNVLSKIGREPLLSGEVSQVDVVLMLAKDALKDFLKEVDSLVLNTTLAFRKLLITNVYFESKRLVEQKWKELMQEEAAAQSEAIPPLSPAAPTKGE

T1 sequence (Q9NPC2 whole entry): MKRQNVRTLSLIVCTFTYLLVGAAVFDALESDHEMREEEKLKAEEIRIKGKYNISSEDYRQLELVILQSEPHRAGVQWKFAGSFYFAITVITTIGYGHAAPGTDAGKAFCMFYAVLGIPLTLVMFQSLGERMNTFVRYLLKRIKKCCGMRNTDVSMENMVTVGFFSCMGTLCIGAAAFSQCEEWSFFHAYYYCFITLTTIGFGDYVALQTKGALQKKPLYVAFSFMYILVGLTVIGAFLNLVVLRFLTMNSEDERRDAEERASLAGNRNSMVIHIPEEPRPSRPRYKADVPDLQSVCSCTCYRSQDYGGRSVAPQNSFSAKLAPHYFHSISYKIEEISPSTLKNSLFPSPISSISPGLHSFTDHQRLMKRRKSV
NAD-dependent protein deacylase sirtuin-5, mitochondrial, sequence (Q9NXA8 whole entry): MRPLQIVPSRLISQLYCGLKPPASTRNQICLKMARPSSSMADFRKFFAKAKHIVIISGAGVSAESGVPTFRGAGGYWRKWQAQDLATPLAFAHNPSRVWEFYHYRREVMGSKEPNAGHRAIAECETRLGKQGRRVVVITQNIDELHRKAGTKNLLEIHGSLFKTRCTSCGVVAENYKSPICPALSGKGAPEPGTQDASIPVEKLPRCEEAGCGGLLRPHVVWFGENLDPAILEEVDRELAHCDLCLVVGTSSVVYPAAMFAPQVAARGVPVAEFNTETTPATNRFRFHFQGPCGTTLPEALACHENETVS
Paired box protein Pax-8, sequence (Q06710 whole entry): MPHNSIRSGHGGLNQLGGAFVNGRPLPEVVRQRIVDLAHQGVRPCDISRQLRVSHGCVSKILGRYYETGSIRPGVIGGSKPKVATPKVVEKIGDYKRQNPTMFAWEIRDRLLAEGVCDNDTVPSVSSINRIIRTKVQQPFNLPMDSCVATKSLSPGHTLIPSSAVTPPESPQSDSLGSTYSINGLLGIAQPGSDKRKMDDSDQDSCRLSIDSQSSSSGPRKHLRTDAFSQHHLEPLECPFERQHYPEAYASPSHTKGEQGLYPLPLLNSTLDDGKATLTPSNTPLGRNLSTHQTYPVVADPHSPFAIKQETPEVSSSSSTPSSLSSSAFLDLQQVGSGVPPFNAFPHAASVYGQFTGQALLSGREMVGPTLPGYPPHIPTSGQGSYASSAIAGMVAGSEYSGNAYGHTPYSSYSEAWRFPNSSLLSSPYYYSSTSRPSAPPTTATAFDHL
Potassium channel subfamily K member 3 (Homo sapiens, UniProt O14649), sequence (O14649 whole entry): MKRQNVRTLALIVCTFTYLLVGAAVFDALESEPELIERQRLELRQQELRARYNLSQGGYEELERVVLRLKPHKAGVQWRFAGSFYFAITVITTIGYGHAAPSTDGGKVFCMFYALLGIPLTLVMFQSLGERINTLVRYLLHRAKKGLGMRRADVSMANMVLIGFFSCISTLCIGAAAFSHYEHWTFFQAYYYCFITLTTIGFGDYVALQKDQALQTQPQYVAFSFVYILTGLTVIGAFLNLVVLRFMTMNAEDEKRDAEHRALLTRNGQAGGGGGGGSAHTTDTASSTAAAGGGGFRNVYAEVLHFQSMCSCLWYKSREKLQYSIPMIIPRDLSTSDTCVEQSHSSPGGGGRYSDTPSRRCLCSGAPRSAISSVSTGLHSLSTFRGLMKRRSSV
Potassium channel subfamily K member 3 (Rattus norvegicus, UniProt O54912), sequence (O54912 whole entry, the tested form may be a part): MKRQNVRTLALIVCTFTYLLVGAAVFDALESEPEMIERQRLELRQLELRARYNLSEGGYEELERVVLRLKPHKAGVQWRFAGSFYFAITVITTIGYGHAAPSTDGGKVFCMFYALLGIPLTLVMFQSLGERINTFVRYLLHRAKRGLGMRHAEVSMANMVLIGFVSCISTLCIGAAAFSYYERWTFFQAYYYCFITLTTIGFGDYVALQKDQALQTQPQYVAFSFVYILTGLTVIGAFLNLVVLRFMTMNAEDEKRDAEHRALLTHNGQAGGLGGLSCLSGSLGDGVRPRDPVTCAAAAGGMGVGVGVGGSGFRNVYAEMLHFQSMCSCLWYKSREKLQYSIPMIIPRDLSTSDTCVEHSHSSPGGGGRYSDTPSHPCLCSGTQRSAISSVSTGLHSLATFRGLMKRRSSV

With C[C@@H]1CCCCO[C@@H](CN(C)Cc2ccc(Cl)c(Cl)c2)[C@H](C)CN([C@@H](C)CO)C(=O)c2cc(NC(=O)Nc3ccccc3)ccc2O1 the AC50 [1] was 11.6 µM (active) and the AC50 [2] was 3.09 µM (active).
For O=c1c2cc([N+](=O)[O-])ccc2nc(CN2CCCCC2)n1-c1ccccc1F, the IC50 [3] was 4.7 µM (active).
For CC(=O)NC1=C(c2ccc3c(c2)oc2ccccc23)C(=O)c2ccccc2C1=O, the AC50 [4] was 26.9 µM (active) and the AC50 [5] was 14.9 µM (active).
In the case of CCOc1ccccc1NC(=O)c1cccc(NC(=O)CC2CCCC2)c1, the IC50 [6] is reported as 3.9 µM (active), the IC50 [7] is reported as 4.17 µM (active) and the IC50 [8] is reported as 0.32 µM (active). The IC50 [9] was 0.161 µM (active).
In the case of Cc1cccc(CSc2nnc(-c3ccc(Cl)cc3)o2)n1, the IC90 [10] is reported as 2 µM (active), the AC50 [11] is reported as > 24 µM (inactive) and the IC90 [12] is reported as 2 µM (active). For the same compound, the IC90 [13] was 125 µM (active).
With CCCNC(=O)Nc1ccc2c(c1)C(=O)N(C)[C@H]1CC[C@H](CC(=O)NCC3CCCCC3)O[C@@H]1CO2 the AC50 [14] was > 30 µM (inactive).
In the case of COc1ccc(CCCNc2c3ccccc3nc3ccccc23)cc1OC, the IC50 [15] is reported as 2.2 µM (active).
With COC(=O)C1=C(C)N(Cc2ccc(C(F)(F)F)cc2)C(NCc2ccc(C(F)(F)F)cc2)=NC1c1ccccc1C(F)(F)F (stereo unspecified) the IC50 [16] was > 96.6 µM (inactive).

— ChEMBL document CHEMBL1201862, “PubChem BioAssay data set” (2004)
